This passage reports IC50 results from patent US20250277012A1 (Protagonist Therapeutics, Inc., priority 2021, published 2025).

Molecules are shown by their SMILES. Starred links: 1 amine or outer side, 2 acyl side, 3 side chain; linkers in the order of their positions; H or OH if unused. Positions of bridges follow the written chain, without caps; N, C: chain ends. Non-standard residues stand in square brackets, D forms with d. Residues, ends and D or L forms follow the SMILES beside them. Groups on a side chain read outwards from the residue. ξ: configuration not given here. *: point of attachment. X1 = C[N+](C)(CCNC(=O)CCCCCCCCCCCCCCCCC(=O)O)CC(=O)*; C18 diacid = O=C(O)CCCCCCCCCCCCCCCCC(=O)*; Dip = N[C@H](C(=O)O)C(c1ccccc1)c1ccccc1; Pro(3S-OH) = O=C(O)[C@H]1NCC[C@@H]1O; Pro(3R-OH) = O=C(O)[C@H]1NCC[C@H]1O; Ethylenediamine = C(CN[*:2])N[*:1]; Palmitoyl = CCCCCCCCCCCCCCCC(=O)*; β3hF = N[C@H](CC(=O)O)Cc1ccccc1; Aad = N[C@@H](CCCC(=O)O)C(=O)O; NMeK = CN[C@@H](CCCCN)C(=O)O; Isovaleryl = CC(C)CC(=O)*; Dap = NC[C@H](N)C(=O)O; AEEA = NCCOCCOCC(=O)O; Ahx = NCCCCCC(=O)O; ξC = NC(CS)C(=O)O

The target in one experiment is T1, ferroportin (Homo sapiens, UniProt Q9NP59).
T1 sequence (Q9NP59 1-571): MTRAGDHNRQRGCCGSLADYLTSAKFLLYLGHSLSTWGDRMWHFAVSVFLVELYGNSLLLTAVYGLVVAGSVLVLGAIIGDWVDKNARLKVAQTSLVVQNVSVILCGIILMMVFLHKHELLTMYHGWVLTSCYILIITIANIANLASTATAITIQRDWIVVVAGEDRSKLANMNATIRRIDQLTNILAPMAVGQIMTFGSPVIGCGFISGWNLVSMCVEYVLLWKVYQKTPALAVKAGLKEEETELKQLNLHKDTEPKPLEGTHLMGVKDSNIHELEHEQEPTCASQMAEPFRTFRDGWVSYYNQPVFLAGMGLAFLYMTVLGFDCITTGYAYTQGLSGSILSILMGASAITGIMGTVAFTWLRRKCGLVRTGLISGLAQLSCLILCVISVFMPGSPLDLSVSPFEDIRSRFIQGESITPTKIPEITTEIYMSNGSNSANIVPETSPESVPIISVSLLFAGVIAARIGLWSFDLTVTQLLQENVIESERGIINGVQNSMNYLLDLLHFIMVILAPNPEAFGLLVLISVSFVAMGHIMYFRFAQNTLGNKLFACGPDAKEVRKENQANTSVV
In words: T47D cell-based ferroportin internalization assay in presence of mouse serum albumin (MSA). Details: a human breast carcinoma adherent cell line which endogenously expresses ferroportin; host or cells: T47D. Particulars: T47D internalization assay in presence of mouse serum albumin (MSA); Table 6E. The method, then:
The potency of the peptides in causing ferroportin internalization was evaluated in a T47D cell-based assay. […] In this internalization assay, the potency of the test peptides was evaluated in presence of serum albumin which is the main protein component in the blood. T47D cells were maintained in RPMI media (containing required amount of fetal bovine serum) and regularly sub-cultured. In preparation for the assay, the cells were seeded in 96-well plates at a density of 80-100 k cells per well in 100 ul volume and allowed to rest overnight. […] Sigma, A3139). The test peptide dilution series were allowed to incubate at room temperature for 30 min. Then the media was aspirated from the 96-well cell plate and test peptide dilution series were added. […] The AF647-conjugated detection peptide was previously verified to bind to ferroportin and cause its internalization. The cells were washed again after a 2 hr incubation in preparation for flow cytometry analysis. The Median Fluorescence Intensity (MFI) of the AF647-positive population was measured (after removing dead cells and non-singlets from the analysis). The MFI values were used to generate a dose-response curve and obtain IC50 potencies for the test peptides.
In general, IC50 refers to the concentration that inhibits the measured activity by half. Regarding `CC(C)CC(=O)N[C@@H](CCC(=O)O)C(=O)N1CC[C@H](O)[C@H]1C(=O)N[C@@H](Cc1c[nH]cn1)C(=O)N[C@H](C(=O)N1CCC[C@H]1C(=O)N[C@H]1CSSC[C@@H](C(=O)N(C)[C@@H](CCCCNC(=O)COCCOCCNC(=O)COCCOCCNC(=O)[C@H](CN)NC(=O)CCCCCCCCCCCCCCCCC(=O)O)C(=O)N[C@H](CC(=O)N[C@H](CCCCN)C(N)=O)Cc2ccccc2)NC1=O)C(c1ccccc1)c1ccccc1` [compound 253] (Isovaleryl-E[Pro(3S-OH)]H[Dip]PCC[NMeK]([AEEA-AEEA-Dap-C18 diacid])[β3hF][dK]-NH2; disulfide 6-7), the IC50 lay within 10 to 100 nM.

As for `CC(C)CC(=O)N[C@@H](CCCC(=O)O)C(=O)N[C@H](C(=O)N[C@@H](Cc1c[nH]cn1)C(=O)N[C@H](C(=O)N1CCC[C@H]1C(=O)N[C@H]1CSSC[C@@H](C(=O)N(C)[C@@H](CCCCNC(=O)COCCOCCNC(=O)COCCOCCNC(=O)[C@H](CN)NC(=O)CCCCCCCCCCCCCCCCC(=O)O)C(=O)N[C@H](CC(=O)N[C@H](CCCCN)C(N)=O)Cc2ccccc2)NC1=O)C(c1ccccc1)c1ccccc1)[C@@H](C)O` [compound 244] (Isovaleryl-[Aad]TH[Dip]PCC[NMeK]([AEEA-AEEA-Dap-C18 diacid])[β3hF][dK]-NH2; disulfide 6-7), the half-maximal inhibitory concentration (IC50) fell in the range of 10 to 100 nM.

Staying with this experiment, now noted: Table 6E; T47D internalization assay with MSA.
For the compound `CC(C)CC(=O)N[C@@H](CCC(=O)O)C(=O)N1CC[C@@H](O)[C@H]1C(=O)N[C@@H](Cc1c[nH]cn1)C(=O)N[C@H](C(=O)N1CCC[C@H]1C(=O)N[C@H]1CSSC[C@@H](C(=O)N(C)[C@@H](CCCCNC(=O)CCCCCNC(=O)C[N+](C)(C)CCNC(=O)CCCCCCCCCCCCCCCCC(=O)O)C(=O)N[C@H](C(=O)N[C@H](CCCCN)C(N)=O)C(c2ccccc2)c2ccccc2)NC1=O)C(c1ccccc1)c1ccccc1` [compound 191] (Isovaleryl-E[Pro(3R-OH)]H[Dip]PCC[NMeK]([Ahx-X1])[Dip][dK]-NH2; disulfide 6-7), the IC50 lay within 10 to 100 nM.

As to `CCCCCCCCCCCCCCCC(=O)NCCCCCC(=O)NCCCC[C@@H](C(=O)N[C@H](C(=O)NCCN)C(c1ccccc1)c1ccccc1)N(C)C(=O)C1CSSC[C@H](NC(=O)[C@@H]2CCCN2C(=O)[C@@H](NC(=O)[C@H](Cc2c[nH]cn2)NC(=O)[C@@H](NC(=O)[C@H](CCC(=O)O)NC(=O)CC(C)C)[C@@H](C)O)C(c2ccccc2)c2ccccc2)C(=O)N1` (stereo partly drawn) [compound 164] (Isovaleryl-ETH[Dip]PC[ξC][NMeK]([Ahx-Palmitoyl])[Dip]-Ethylenediamine; disulfide 6-7), the half-inhibitory concentration (IC50) was 1 to 10 nM.

As to `CC(C)CC(=O)N[C@@H](CCC(=O)O)C(=O)N[C@H](C(=O)N[C@@H](Cc1c[nH]cn1)C(=O)N[C@H](C(=O)N1CCC[C@H]1C(=O)N[C@H]1CSSC[C@@H](C(=O)N(C)[C@@H](CCCCNC(=O)COCCOCCNC(=O)COCCOCCNC(=O)C[N+](C)(C)CCNC(=O)CCCCCCCCCCCCCCCCC(=O)O)C(=O)N[C@H](C(=O)N[C@H](CCCCN)C(N)=O)C(c2ccccc2)c2ccccc2)NC1=O)C(c1ccccc1)c1ccccc1)[C@@H](C)O` [compound 158] (Isovaleryl-ETH[Dip]PCC[NMeK]([AEEA-AEEA-X1])[Dip][dK]-NH2; disulfide 6-7), the IC50 was in the range of 10 to 100 nM.

With `COC(=O)CC[C@H](NC(=O)CC(C)C)C(=O)N[C@H](C(=O)N[C@@H](Cc1c[nH]cn1)C(=O)N[C@H](C(=O)N1CCC[C@H]1C(=O)N[C@H]1CSSC[C@@H](C(=O)N[C@H](CCCCNC(=O)CCCCCNC(=O)C[N+](C)(C)CCNC(=O)CCCCCCCCCCCCCCCCC(=O)O)C(=O)N[C@H](CC(=O)N[C@H](CCCCN)C(N)=O)Cc2ccccc2)NC1=O)C(c1ccccc1)c1ccccc1)[C@@H](C)O` [compound 213] (Isovaleryl-E(OMe)TH[Dip]PCC[dK]([Ahx-X1])[β3hF][dK]-NH2; disulfide 6-7), the IC50 is 10 to 100 nM.
